From patent US5114918A, “Endothelin antagonistic cyclic pentapeptides” (Banyu Pharmaceutical Co., Ltd., priority 1989, dated 1992)
Square brackets hold non-standard residues; d marks the D form. Peptide text beside a SMILES is read from it. * marks the point of attachment. dGly(2-thienyl) = N[C@@H](C(=O)O)c1cccs1; dGly(cPent) = N[C@@H](C(=O)O)C1CCCC1; dCya = N[C@H](CS(=O)(=O)O)C(=O)O; Met(O) = CS(=O)CC[C@H](N)C(=O)O; dPen = CC(C)(S)[C@@H](N)C(=O)O; dNle = CCCC[C@@H](N)C(=O)O; Ac6c = NC1(C(=O)O)CCCCC1; Nle = CCCC[C@H](N)C(=O)O; Boc = CC(C)(C)OC(=O)*; Aib = CC(C)(N)C(=O)O; Sar = CNCC(=O)O; For = O=C*

Molecular target: T1, endothelin receptor (membrane of smooth muscle tissue of porcine aorta) (Sus scrofa, UniProt Q29010)
T1 construct: from tissue; host or cells: smooth muscle tissue of porcine aorta (membrane fraction)
T1 sequence (Q29010 21-427): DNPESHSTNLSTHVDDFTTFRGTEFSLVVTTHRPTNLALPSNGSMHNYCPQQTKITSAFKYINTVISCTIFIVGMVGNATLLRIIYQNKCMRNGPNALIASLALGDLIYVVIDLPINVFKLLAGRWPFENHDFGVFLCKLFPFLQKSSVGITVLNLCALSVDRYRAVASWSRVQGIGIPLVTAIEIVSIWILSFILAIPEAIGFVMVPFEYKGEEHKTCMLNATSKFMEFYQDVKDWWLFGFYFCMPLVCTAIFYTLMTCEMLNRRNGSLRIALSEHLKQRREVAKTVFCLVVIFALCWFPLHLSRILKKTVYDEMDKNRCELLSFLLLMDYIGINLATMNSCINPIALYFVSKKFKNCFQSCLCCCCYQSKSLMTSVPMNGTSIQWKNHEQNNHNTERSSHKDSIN
Test: Endothelin binding inhibition test (125I-endothelin-1, porcine aorta smooth muscle membrane)
Conditions: 1.1 μM of the test compound, porcine aorta smooth muscle membrane, 25° C, 4 hours; for inhibition at 1.1 µM: read-out: 125I-endothelin-1 binding inhibition, Inhibition (%)
Experimental: Endothelin binding inhibition test
The smooth muscle tissue of porcine aorta was homogenized in a buffer solution of 10 mM MOPS, pH 7.4, at 4° C. by a polytron. To the homogenate, sucrose was added to a concentration of 20%, and the mixture was centrifuged at 1,000×g for 15 minutes, and the supernatant was further centrifuged at 10,000×g for 15 minutes. The supernatant thereof was further centrifuged at 90,000×g for 40 minutes. The membrane precipitate thereby obtained was suspended in a buffer solution of 5 mM HEPES/Tris, pH 7.4, at a concentration of 25 mg/ml.
Then, 16 μl of this membrane suspension was added to 340 μl of 50 mM Tris/HCl buffer, pH 7.4, containing 10 μM calcium chloride, 10 μM magnesium chloride, 0.1 mM PMSF, 1 μM pepstatin A, 2 μM leupeptin, 1 mM 1,10-phenanthroline and 0.1% bovine serum albumin. To this suspension, 4 μl of (A) endothelin-1 (for nonspecific binding: 0.2 μM as the final concentration), (B) buffer solution A (for total control binding), or (C) a test compound (1.1 μM as the final concentration), was added. Further, to each suspension, 40 μl of ^125 I-endothelin-1 (12000-18000 cpm) was added. These mixtures were incubated at 25° C for 4 hours, then subjected to filtration on a glass filter GF/C and then washed with 5 mM HEPES/Tris, pH 7.4, containing 0.3% bovine serum albumin. Then, the radioactivity trapped by the glass filter was measured, and the ^125 I-endothelin-1 binding inhibition D (%) at 1.1 μM of the test compound was determined by the following equation. [formula] Each test was performed in triplicate.

Row | Molecule | inhibition at 1.1 µM [%] | 125I-endothelin-1 binding inhibition, Inhibition (%)
1 | CCCC[C@@H]1NC(=O)[C@@H](C(C)C)NC(=O)[C@@H]2CCCN2C(=O)[C@@H](CS(=O)(=O)O)NC(=O)[C@@H](Cc2c[nH]c3ccccc23)NC1=O [Example 5, cyclo(-DTrp-DCys(O3 Na)-Pro-DVal-Nle-)] (cyclo([Nle][dW][dCya]P[dV])) | 81 | 
2 | CC(C)C[C@@H]1NC(=O)[C@@H](C(C)C)NC(=O)[C@H](CCCCN)NC(=O)[C@@H](CC(=O)O)NC(=O)[C@@H](Cc2c[nH]c3ccccc23)NC1=O [Example 4, cyclo(-DTrp-DAsp-Lys-DVal-Leu-)] (cyclo(K[dV]L[dW][dD])) | 74 | 
3 | CC[C@@H](C)[C@H]1NC(=O)[C@@H]2CCCN2C(=O)[C@@H](CC(=O)O)NC(=O)[C@@H](Cc2c[nH]c3ccccc23)NC(=O)[C@H](CC(C)C)NC1=O [Example 31, cyclo(-DTrp-DAsp-Pro-DIle-Leu-)] (cyclo(L[dW][dD]P[dI])) | 80 | 
4 | CCCC[C@@H]1NC(=O)[C@@H](C(C)C)NC(=O)[C@@H]2CCCN2C(=O)[C@@H](CC(=O)O)NC(=O)[C@@H](Cc2c[nH]c3ccccc23)NC1=O [Example 41, cyclo(-DTrp-DAsp-Pro-DVal-Nle-)] (cyclo([Nle][dW][dD]P[dV])) | 83 | 
5 | CC(C)C[C@@H]1NC(=O)[C@@H](C(C)C)NC(=O)[C@H](CCCCN)NC(=O)[C@@H](CS(=O)(=O)O)NC(=O)[C@@H](Cc2c[nH]c3ccccc23)NC1=O [Example 50, cyclo(-DTrp-nCys(O3 H)-Lys-DVal-Leu-)] (cyclo(K[dV]L[dW][dCya])) | 57 | 
6 | CC(C)C[C@@H]1NC(=O)[C@@H](C(C)C)NC(=O)[C@H](Cc2c[nH]cn2)NC(=O)[C@@H](CC(=O)O)NC(=O)[C@@H](Cc2c[nH]c3ccccc23)NC1=O [Example 18, cyclo(-DTrp-DAsp-His-DVal-Leu-)] (cyclo(H[dV]L[dW][dD])) | 69 | 
7 | CC(C)C[C@@H]1NC(=O)[C@@H](C(C)C)NC(=O)[C@@H]2CCCN2C(=O)[C@@H](CCC(=O)O)NC(=O)[C@@H](Cc2c[nH]c3ccccc23)NC1=O [Example 10, cyclo(-DTrp-DGlu-Pro-DVal-Leu-)] (cyclo(L[dW][dE]P[dV])) | 54 | 
8 | CC(C)C[C@@H]1NC(=O)[C@@H](C(C)C)NC(=O)[C@H](CCC(N)=O)NC(=O)[C@@H](CC(=O)O)NC(=O)[C@@H](Cc2c[nH]c3ccccc23)NC1=O [Example 21, cyclo(-DTrp-nAsp-Gln-DVal-Leu-)] (cyclo(L[dW][dD]Q[dV])) | 73 | 
9 | CC(C)C[C@@H]1NC(=O)[C@@H](C(C)C)NC(=O)[C@H]([C@@H](C)O)NC(=O)[C@@H](CC(=O)O)NC(=O)[C@@H](Cc2c[nH]c3ccccc23)NC1=O [Example 27, cyclo(-DTrp-DAsp-Thr-DVal-Leu-)] (cyclo(L[dW][dD]T[dV])) | 66 | 
10 | CC(C)C[C@@H]1NC(=O)[C@@H](C(C)C)NC(=O)[C@H](CC(=O)O)NC(=O)[C@@H](CC(=O)O)NC(=O)[C@@H](Cc2c[nH]c3ccccc23)NC1=O [Example 22, cyclo(-DTrp-DAsp-Asp-DVal-Leu-)] (cyclo(D[dV]L[dW][dD])) | 75 | 
11 | cyclo(-DTrp(CHO)-DGlu-Ala-DaIle-Leu-) [Example 52] |  | 64
12 | CCCC[C@H]1NC(=O)[C@@H]2CCCN2C(=O)[C@@H](CC(=O)O)NC(=O)[C@@H](Cc2c[nH]c3ccccc23)NC(=O)[C@H](CC(C)C)NC1=O [Example 33, cyclo(-DTrp-DAsp-Pro-DNle-Leu-)] (cyclo(L[dW][dD]P[dNle])) | 77 | 
13 | CCCC[C@@H]1NC(=O)[C@@H](C(C)C)NC(=O)[C@H](CO)NC(=O)[C@@H](CC(=O)O)NC(=O)[C@@H](Cc2cn(C=O)c3ccccc23)NC1=O [Example 54, cyclo(-DTrp(CHO)-DAsp-Ser-DVal-Nle-)] (cyclo([Nle][dW](For)[dD]S[dV])) | 65 | 
14 | CSCC[C@@H]1NC(=O)[C@@H](C(C)C)NC(=O)[C@H](CO)NC(=O)[C@@H](CC(=O)O)NC(=O)[C@@H](Cc2c[nH]c3ccccc23)NC1=O [Example 37, cyclo(-DTrp-DAsp-Ser-DVal-Met-)] (cyclo(M[dW][dD]S[dV])) | 38 | 
15 | CCCC[C@@H]1NC(=O)[C@@H](CC(=O)O)NC(=O)[C@@H](Cc2c[nH]c3ccccc23)NC(=O)[C@H](CC(C)C)NC(=O)[C@@H](C(C)C)NC1=O [Example 46, cyclo(-DTrp-DAsp-Nle-DVal-Leu-)] (cyclo(L[dW][dD][Nle][dV])) | 75 | 
16 | CC(C)C[C@@H]1NC(=O)[C@@H](C(C)C)NC(=O)[C@H](CCCNC(=N)N)NC(=O)[C@@H](CC(=O)O)NC(=O)[C@@H](Cc2c[nH]c3ccccc23)NC1=O [Example 19, cyclo(-DTrp-DAsp-Arg-DVal-Leu-)] (cyclo(L[dW][dD]R[dV])) | 70 | 
17 | cyclo([dW][dD]P[dV]L) [Example 30] |  | 72
18 | CC(C)C[C@@H]1NC(=O)[C@@H](C(C)C)NC(=O)[C@H](C(C)C)NC(=O)[C@@H](CC(=O)O)NC(=O)[C@@H](Cc2c[nH]c3ccccc23)NC1=O [Example 44, cyclo(-DTrp-DAsp-Val-DVal-Leu-)] (cyclo(L[dW][dD]V[dV])) | 56 | 
19 | CC(C)C[C@@H]1NC(=O)[C@@H](C(C)C)NC(=O)[C@H](Cc2ccc(O)cc2)NC(=O)[C@@H](CC(=O)O)NC(=O)[C@@H](Cc2c[nH]c3ccccc23)NC1=O [Example 16, cyclo(-DTrp-DAsp-Tyr-DVal-Leu-)] (cyclo(L[dW][dD]Y[dV])) | 77 | 

Continued, in another order:

Row | inhibition at 1.1 µM [%] | Molecule | 125I-endothelin-1 binding inhibition, Inhibition (%)
20 | 43 | CC(C)[C@H]1NC(=O)[C@@H]2CCCN2C(=O)[C@@H](CC(=O)O)NC(=O)[C@@H](Cc2c[nH]c3ccccc23)NC(=O)[C@H](Cc2c[nH]cn2)NC1=O [Example 84, cyclo(-DTrp-DAsp-Pro-DVal-His)] (cyclo(H[dW][dD]P[dV])) | 
21 | 34 | CC(C)C[C@@H]1NC(=O)[C@@H](C(C)C)NC(=O)[C@@H]2CCCN2C(=O)[C@@H](CC(=O)O)NC(=O)[C@@H](Cc2cn(C(=O)OC(C)(C)C)c3ccccc23)NC1=O [Example 87, cyclo(-DTrp(COO^t Bu)-DAsp-Pro-DVal-leu-)] (cyclo(L[dW](Boc)[dD]P[dV])) | 
22 | 60 | CC(C)C[C@@H]1NC(=O)C(C)(C)NC(=O)[C@@H]2CCCN2C(=O)[C@@H](CC(=O)O)NC(=O)[C@@H](Cc2c[nH]c3ccccc23)NC1=O [Example 62, cyclo(-DTrp-nAsp-Pro-Aib-Leu-)] (cyclo([Aib]L[dW][dD]P)) | 
23 | 79 | CC(C)C[C@@H]1NC(=O)[C@@H](C(C)(C)S)NC(=O)[C@@H]2CCCN2C(=O)[C@@H](CC(=O)O)NC(=O)[C@@H](Cc2c[nH]c3ccccc23)NC1=O [Example 60, cyclo(-DTrp-DAsp-Pro-DPen-Leu-)] (cyclo(L[dW][dD]P[dPen])) | 
24 | 86 | CC(C)C[C@@H]1NC(=O)[C@@H](C2CCCC2)NC(=O)[C@@H]2CCCN2C(=O)[C@@H](CC(=O)O)NC(=O)[C@@H](Cc2c[nH]c3ccccc23)NC1=O [Example 81, cyclo(-DTrp-DAsp-Pro-DCpg-Leu-)] (cyclo(L[dW][dD]P[dGly(cPent)])) | 
25 | 85 | CC(C)C[C@@H]1NC(=O)[C@@H](C(C)C)NC(=O)CN(C)C(=O)[C@@H](CC(=O)O)NC(=O)[C@@H](Cc2c[nH]c3ccccc23)NC1=O [Example 65, cyclo(-DTrp-DAsp-Sar-DVal-Leu-)] (cyclo(L[dW][dD][Sar][dV])) | 
26 | 83 | CC(C)C[C@@H]1NC(=O)C2(CCCCC2)NC(=O)[C@@H]2CCCN2C(=O)[C@@H](CC(=O)O)NC(=O)[C@@H](Cc2c[nH]c3ccccc23)NC1=O [Example 64, cyclo(-DTrp-DAsp-Pro-Ac6 c-Leu-)] (cyclo([Ac6c]L[dW][dD]P)) | 
27 | 82 | CC(C)C[C@@H]1NC(=O)[C@@H](c2cccs2)NC(=O)[C@@H]2CCCN2C(=O)[C@@H](CC(=O)O)NC(=O)[C@@H](Cc2c[nH]c3ccccc23)NC1=O [Example 67, cyclo(-DTrp-DAsp-Pro-DThg-Leu-)] (cyclo(L[dW][dD]P[dGly(2-thienyl)])) | 
28 | 84 | CC(C)C[C@@H]1NC(=O)[C@@H](C(C)C)NC(=O)[C@H](CC[S+](C)[O-])NC(=O)[C@@H](CC(=O)O)NC(=O)[C@@H](Cc2cn(C=O)c3ccccc23)NC1=O (stereo partly drawn) [Example 58, cyclo(-DTrp(CHO)-DAsp-Met(O)-DVal-Leu-)] (cyclo(L[dW](For)[dD][Met(O)][dV])) | 
